Results taken from the supplement of paper PMC10307832.

Key:
Assay in all cases: relative viability (nuclei count vs DMSO), 5 days (fraction); higher = more cells survive
Imatinib = compound: Cc1ccc(NC(=O)c2ccc(CN3CCN(C)CC3)cc2)cc1Nc1nccc(-c2cccnc2)n1 [Imatinib]
How it was run: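 Only plates meeting two conditions passed: control CV below 25% and at least one doubling. Lung cancer cell lines, kept overnight at 37 °C in 1536-well plates, were pinned with five library-drug doses (not always all listed) √10 apart on vehicle-anchored plates and grown 5 days without medium change. A one-step fix, permeabilisation and Hoechst stain preceded 4× imaging and MetaXpress nuclear counting. Viability equals treated-well nuclei divided by vehicle-well nuclei, as the median over plates.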

Imatinib + Crizotinib = compound: Cc1ccc(NC(=O)c2ccc(CN3CCN(C)CC3)cc2)cc1Nc1nccc(-c2cccnc2)n1 [Imatinib] + C[C@@H](Oc1cc(-c2cnn(C3CCNCC3)c2)cnc1N)c1c(Cl)ccc(F)c1Cl [Crizotinib] (partner 1 µM)
How it was run: (§1)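 Cells from lung cancer lines were seeded into 1536-well plates and, one day later, dosed by pin tool. Treatments were either a single drug or a fixed dose of an anchor drug with five library-drug doses (not always all listed) in √10 steps. After 5 days, nuclei were stained in a one-step fixation (final 0.05% Triton X-100, 1% formaldehyde, 1 ug/ml Hoechst) and counted on 4× images, and relative viability is the treated-to-vehicle nuclei ratio, as the median of duplicate plates.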

Imatinib + Olaparib = compound: Cc1ccc(NC(=O)c2ccc(CN3CCN(C)CC3)cc2)cc1Nc1nccc(-c2cccnc2)n1 [Imatinib] + O=C(c1cc(Cc2n[nH]c(=O)c3ccccc23)ccc1F)N1CCN(C(=O)C2CC2)CC1 [Olaparib] (partner 8 µM)
How it was run: as §1

Imatinib + Decitabine = compound: Cc1ccc(NC(=O)c2ccc(CN3CCN(C)CC3)cc2)cc1Nc1nccc(-c2cccnc2)n1 [Imatinib] + Nc1ncn([C@H]2C[C@H](O)[C@@H](CO)O2)c(=O)n1 [Decitabine] (partner 2 µM)
How it was run: as §1

Cell Line	relative viability (Imatinib; 0.02 µM)	relative viability (Imatinib; 0.2 µM)	relative viability (Imatinib; 0.6325 µM)	relative viability (Imatinib; 2 µM)	relative viability (Imatinib + Crizotinib; first compound 0.2 µM)	relative viability (Imatinib + Crizotinib; first compound 0.6325 µM)	relative viability (Imatinib + Crizotinib; first compound 2 µM)	relative viability (Imatinib + Olaparib; first compound 0.02 µM)	relative viability (Imatinib + Olaparib; first compound 0.06325 µM)	relative viability (Imatinib + Olaparib; first compound 0.2 µM)	relative viability (Imatinib + Olaparib; first compound 0.6325 µM)	relative viability (Imatinib + Olaparib; first compound 2 µM)	relative viability (Imatinib + Decitabine; first compound 0.02 µM)	relative viability (Imatinib + Decitabine; first compound 0.06325 µM)	relative viability (Imatinib + Decitabine; first compound 0.2 µM)	relative viability (Imatinib + Decitabine; first compound 0.6325 µM)	relative viability (Imatinib + Decitabine; first compound 2 µM)	relative viability (Imatinib + Crizotinib; first compound 0.02 µM)	relative viability (Imatinib; 0.06325 µM)	relative viability (Imatinib + Crizotinib; first compound 0.06325 µM)
201T	1.01	1.02	0.997	0.965	1.09	0.993	1.02	0.879	0.873	0.845	0.814	0.836	0.855	0.8	0.841	0.852	0.843	–	–	–
A-427	1.04	0.989	0.974	0.969	0.993	0.755	–	0.797	–	0.754	0.715	0.748	0.588	0.536	0.558	0.558	0.562	0.981	–	–
ABC-1	1.11	1.07	0.888	0.634	1.43	1.15	1.07	1	–	0.732	0.785	0.581	1.22	–	0.909	1.15	1.06	1.34	–	–
BEN	1.09	0.897	0.871	0.912	1	0.762	0.93	1.2	1.14	1.01	1.08	1.06	0.711	0.557	0.738	0.732	0.732	1.04	0.82	0.847
CAL-12T	1.04	1.13	1.05	0.943	1.17	0.624	0.776	0.756	–	0.735	0.634	0.77	–	–	–	–	–	0.715	0.865	0.696
COR-L23	1.08	1.14	1.02	1.1	0.809	0.685	0.632	0.394	0.367	0.363	0.383	0.308	0.382	0.507	0.474	0.409	0.455	0.807	0.916	0.73
COR-L 105	1.06	1	0.891	0.9	0.791	0.827	0.726	0.873	0.663	0.678	0.724	0.665	0.709	0.694	0.675	0.563	0.655	0.793	0.979	–
Calu-6	1.08	1.16	1.06	1.02	0.985	0.818	0.652	0.658	0.628	0.673	0.575	0.549	–	–	–	–	–	1.09	1.08	1.17
ChaGo-K-1	1.02	1.01	–	0.949	1.31	0.976	1.05	0.389	–	0.394	0.42	0.45	0.525	–	0.534	0.503	0.503	1.12	0.794	1.35
EKVX	1.03	1	1.01	–	1.08	0.886	–	1.05	–	1.12	0.923	–	0.325	–	0.375	0.352	–	0.937	0.763	0.861
